One may read the pIC50 as −log10 of the IC50, conventionally taken in molar units.

pIC50: −log10 of the molar value.

These results are taken from paper PMC6481137, “Identification of Chinese Herbal Compounds with Potential as JAK3 Inhibitors” (Evidence-based Complementary and Alternative Medicine : eCAM, 2019).

The target of this assay is T1, JAK3 kinase (Homo sapiens, UniProt P52333).
T1 construct: JAK3 kinase domain (amino acids 781 to 1124)
T1 sequence (P52333 781-1124): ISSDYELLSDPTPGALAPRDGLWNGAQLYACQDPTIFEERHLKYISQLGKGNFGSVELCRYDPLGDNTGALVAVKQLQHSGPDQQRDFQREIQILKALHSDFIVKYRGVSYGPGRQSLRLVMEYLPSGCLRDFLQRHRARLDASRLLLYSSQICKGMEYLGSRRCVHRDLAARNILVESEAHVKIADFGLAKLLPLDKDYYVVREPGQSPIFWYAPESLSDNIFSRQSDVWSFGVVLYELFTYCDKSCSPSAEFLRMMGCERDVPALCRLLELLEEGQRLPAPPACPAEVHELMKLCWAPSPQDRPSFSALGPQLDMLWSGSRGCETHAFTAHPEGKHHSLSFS
Nature of the assay: ELISA kinase assay, poly(Glu,Tyr) substrate, […] ATP. It counts as biochemical. (ELISA stands for enzyme-linked immunosorbent assay.)
In turn, `O=C1Nc2ccccc2/C1=C1/Nc2ccccc2C1=O` [IND, Indirubin] showed a pIC50 of around 4.30.

Compound `COc1ccc(-c2oc3c(CC=C(C)C)c(O)cc(O)c3c(=O)c2O)cc1` [ICA, Icaritin] had a pIC50 of around 4.70.

In the case of `C[C@H]1COC2=C1C(=O)C(=O)c1c2ccc2c1CCCC2(C)C` [CRY, Cryptotanshinone], the pIC50 was around 4.60.
